Test results as given in patent US4260630A, “Skin diseases” (priority 1977, dated 1981).

What was measured:
Saccharomyces cerevisiae = experiment: Uptake and removal of the drug in yeast (incubation time, washing); format: cell-based
Procedure: B--Effects of 365 nm light alone or 3-CPs, uptake and removal of the drug.
Since high doses of 365 nm light are needed to induce a killing effect in Saccharomyces cells in the presence of 3-CPs, the effects of 365 nm light alone were measured for doses up to 7500 J/m^2. It was established that, in the range of doses used for the biological experiments, there was only a small lethal effect of 365 nm light alone. Taking into account the standard errors of the surviving fraction (±10%) and the fact that part of the light energy is absorbed by the drug itself, the effect of 365 nm light alone has been neglected in the experiments.

[1] = Light sensitivity of the drug in aqueous solution (chromatography, fluorescence spectra); format: physicochemical
[2] = test system: skin of homozygote albino mice strain XVII nc/Z; experiment: Chronic topical application on the ears of mice plus 365 nm UV irradiation (tumors, skin reactions); format: in vivo
Procedure: The experiments were effected on groups of 40 mice, male and female.
After 115 topical applications of psoralen, followed each time by 10 minutes of irradiation (cumulative doses of 2.07×10^6 J/m^2), 100% of the animals developed a tumor; 50% having tumors on two ears.
(§1) 3-CPs was also tested intraperitoneally (36 injections of 0.4 mg each over a period of 7 weeks).
In all these experiments the U.V. lamp was of the type of HPW 125 W, manufactured by Philips.

[3] = Intraperitoneal toxicity in mice; format: in vivo; settings: i.p., 36 injections of 0.4 mg over 7 weeks
Procedure: as §1

psoriasis lesions = experiment: Treatment of psoriasis patients, 1% 3-CPs ointment plus 365 nm UV; format: in vivo; settings: 1% ointment
Procedure: The effectiveness of thus-obtained 3-CPs was tested on 10 patients having ordinary psoriasis covering from 200 to 400 cm^2 of skin.
Preparation of 1% 3-CPs ointment:
1 g of 3-CPs was ground to a very fine powder and then dispersed in 70 g of "HYDROCERINE" (a commercially-available product manufactured by ROC) at 70° C. 29 ml of water were added at 70° C. in order to obtain an aqueous emulsion in oil.
The irradiation dose at 365 nm UV was of about 5 J/cm^2 per unit treatment and administered using the usual PUVA therapy set-up.

skin [4] = experiment: Erythema, skin injury and tanning on skin of patients; format: in vivo; settings: compared with 8-MOP
Text: In contrast, it has now been discovered that the mono-functional derivatives of formula I provoke absolutely no erythema, neither immediate nor postponed. No skin injury, neither macro- nor microscopic, was observed on patients. It will be readily apparent to men skilled in the art that this property is a very unique one for compounds of the psoralen family. […] Thus, undesirable cosmetic side effects appear to be absent. Consequently, these compounds are of great interest since, in contrast to 8-MOP, they permit subsequent treatment at short-time intervals for example twice a day over prolonged periods of time without any sun-burnlike injury to the skin.

skin [5] = settings: short treatment intervals; cited from earlier work
lymphocytes = settings: therapeutic treatment; cited from earlier work

Row | SMILES | binding in the dark (Saccharomyces cerevisiae) | effect after one minute incubation (Saccharomyces cerevisiae; 10 μg/ml, wild-type and rad9-4) | killing and "petite" induction vs incubation time before irradiation (Saccharomyces cerevisiae; 10 μg/ml, wild-type and rad9-4, constant 365 nm dose) | uptake and washing out compared with 8-MOP (Saccharomyces cerevisiae; Saccharomyces) | sensitizing effect after washing (Saccharomyces cerevisiae; doses of 365 nm light used) | light sensitivity [1] | photoproduct ([1]; illuminated aqueous solutions) | erythema, cutaneous inflammation, tumor ([2]; 115 applications on two ears, 30 minutes rest, 10 minutes irradiation) | mortality ([2]; 115 applications, 450 days of observation) | macroscopic or microscopic reaction ([2]; 450 days of observation) | survival [3] | weight and signs of toxicity [3] | erythema or cutaneous inflammation (psoriasis lesions) | speed of action compared with 8-MOP (psoriasis lesions) | tanning effect (skin [4]) | erythemal reactions in the skin (skin [5]) | lymphocytes in circulating blood (lymphocytes)
1 | CCOC(=O)c1cc2cc3ccoc3cc2oc1=O [Example 3-CPs, 3-carboethoxypsoralen] | very loosely bound in the dark | about the maximum effect | independent of incubation time | taken up and washed out as readily as 8-MOP | no sensitizing effect after washing | light sensitive | highly fluorescent photoproduct with the characteristics of 4',5'-dihydropsoralen | neither erythema nor cutaneous inflammation nor any tumor | No animal died | Neither macroscopic nor microscopic reaction was observed | All the animals remained alive | without any decrease in weight or other sign of toxicity | no erythema or cutaneous inflammation | slower than that of 8-MOP |  |  | 
2 | COc1c2occc2cc2ccc(=O)oc12 [Example 8-MOP, 8-methoxypsoralen, reference compound] |  |  |  |  |  |  |  |  |  |  |  |  |  |  | strong tanning effect | can cause violent erythemal reactions in the skin | causes a decrease of the lymphocytes in circulating blood
